Tested on: male CD rats
Assay: Forced swimming test (FST) for antidepressive effect
Format: in vivo
Conditions: 1 mg/kg
Text: A more specific test for antidepressive activity is provided by the forced swimming test (FST) developed by Porsolt (Porsolt et al., 1978. Behavioural despair in rats: a new model sensitive to antidepressant treatments, Eur. J. Pharmacol. 47, 379-391).
In a so-called “forced swimming test”, the test animals (rats) are challenged by a stress situation from which they cannot escape by their own efforts. For this purpose, rats are at first left in a water-filled glass cylinder for a time of 15 minutes in a preliminary test (conditioning) one day before the actual test. The filling level is matched to the animals' body weight, so that every animal can support itself with the paws and tail and can keep its nose above water with minimum swimming movements. […] Twenty-four hours after this preliminary test, the test with valerian extract is performed in which the rats are again inserted into the water cylinders and the duration of immobility over a period of 5 minutes is cumulatively recorded.
For testing the valerian formulations on male CD rats, a pretreatment was used for 16 days, and the formulation according to Example 2b) was employed. […] The experiment was recorded by means of a video camera, and the time of immobility of the animals was later detected manually on the screen.

CN1C(=O)CN=C(c2ccccc2)c2cc(Cl)ccc21 [Diazepam]
Shortening of immobility time as compared to the control group: 28%
